Drawing on patent US20140249135A1, “PIM KINASE INHIBITORS AND METHODS OF THEIR USE” (NOVARTIS AG, priority 2007, published 2014), this text covers IC50 for 17 compounds.

Test [1] addresses Pim2 kinase (Homo sapiens, UniProt Q9P1W9). The experiment in a line: Pim2 ATP depletion assay.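 Note: Luciferase-based luminescent readout of ATP remaining after PIM2 phosphorylates a BAD peptide, final 5 nM enzyme, 4 µM ATP, 10 µM peptide, 2.5% DMSO, run to roughly half ATP consumption.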 To be noted: read-out: IC50 (μM) PIM2. The format is biochemical.
The target in test [2] is T1, human full length PKCE enzyme (Homo sapiens, UniProt Q02156).
T1 construct: human full length PKCE enzyme purchased from InVitrogen; purchased InVitrogen
T1 sequence (Q02156 1-737): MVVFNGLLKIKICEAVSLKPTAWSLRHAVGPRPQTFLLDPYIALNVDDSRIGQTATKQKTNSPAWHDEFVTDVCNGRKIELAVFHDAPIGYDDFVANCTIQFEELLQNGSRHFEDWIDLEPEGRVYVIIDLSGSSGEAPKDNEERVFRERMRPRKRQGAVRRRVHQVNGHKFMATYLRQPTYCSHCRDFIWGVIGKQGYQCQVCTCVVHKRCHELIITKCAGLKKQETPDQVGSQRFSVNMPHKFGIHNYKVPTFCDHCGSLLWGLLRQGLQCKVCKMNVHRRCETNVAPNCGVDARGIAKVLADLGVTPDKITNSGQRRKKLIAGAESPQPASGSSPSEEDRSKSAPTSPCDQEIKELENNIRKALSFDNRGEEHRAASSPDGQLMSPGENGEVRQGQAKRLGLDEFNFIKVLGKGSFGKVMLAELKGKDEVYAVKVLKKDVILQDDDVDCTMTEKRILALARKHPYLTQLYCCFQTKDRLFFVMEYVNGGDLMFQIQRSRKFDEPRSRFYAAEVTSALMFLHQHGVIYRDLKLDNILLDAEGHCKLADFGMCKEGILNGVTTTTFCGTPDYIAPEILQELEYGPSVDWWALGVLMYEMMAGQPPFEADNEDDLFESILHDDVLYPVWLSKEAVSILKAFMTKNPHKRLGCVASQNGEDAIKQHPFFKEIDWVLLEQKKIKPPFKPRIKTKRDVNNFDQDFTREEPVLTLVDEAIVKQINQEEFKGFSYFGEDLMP
In words: In vitro PKCE assay. The format is biochemical. Conditions: 10 nM enzyme, 40 uM peptide substrate, 20 uM ATP, KinaseGlo Plus readout; read-out: PKCε IC50.

The target of test [3] is KDR kinase (Homo sapiens, UniProt P35968). The experiment in a line: KDR AlphaScreen assay. Conditions: KDR IC50 (μM).
Test [4] deals with Pim1 kinase (Homo sapiens, UniProt P11309). The experiment in a line: Pim1 ATP depletion assay.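 Note: Luciferase-luciferin luminescence readout of residual ATP after PIM1 transfers phosphate to a peptide substrate, 40 µM ATP added, reaction run to roughly half ATP consumption.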 The format is biochemical. Conditions: Pim1 ATP depletion assay; read-out: IC50 (μM) PIM1.
In test [5] the target is Pim3 kinase (Homo sapiens, UniProt Q86V86). The experiment in a line: Pim3 ATP depletion assay. It counts as biochemical. To be noted: read-out: IC50 (μM) PIM3.

Chain of Pim2 kinase (Q9P1W9 whole entry): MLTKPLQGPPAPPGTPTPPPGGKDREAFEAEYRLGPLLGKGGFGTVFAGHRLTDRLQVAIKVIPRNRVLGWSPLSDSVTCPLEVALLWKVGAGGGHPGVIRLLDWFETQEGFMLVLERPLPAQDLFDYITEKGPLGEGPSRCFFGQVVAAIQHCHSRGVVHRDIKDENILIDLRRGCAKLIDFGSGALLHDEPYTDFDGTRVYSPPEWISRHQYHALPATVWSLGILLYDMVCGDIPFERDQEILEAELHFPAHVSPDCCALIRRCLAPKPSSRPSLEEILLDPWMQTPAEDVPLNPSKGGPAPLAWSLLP
Chain of KDR kinase (P35968 20-1356): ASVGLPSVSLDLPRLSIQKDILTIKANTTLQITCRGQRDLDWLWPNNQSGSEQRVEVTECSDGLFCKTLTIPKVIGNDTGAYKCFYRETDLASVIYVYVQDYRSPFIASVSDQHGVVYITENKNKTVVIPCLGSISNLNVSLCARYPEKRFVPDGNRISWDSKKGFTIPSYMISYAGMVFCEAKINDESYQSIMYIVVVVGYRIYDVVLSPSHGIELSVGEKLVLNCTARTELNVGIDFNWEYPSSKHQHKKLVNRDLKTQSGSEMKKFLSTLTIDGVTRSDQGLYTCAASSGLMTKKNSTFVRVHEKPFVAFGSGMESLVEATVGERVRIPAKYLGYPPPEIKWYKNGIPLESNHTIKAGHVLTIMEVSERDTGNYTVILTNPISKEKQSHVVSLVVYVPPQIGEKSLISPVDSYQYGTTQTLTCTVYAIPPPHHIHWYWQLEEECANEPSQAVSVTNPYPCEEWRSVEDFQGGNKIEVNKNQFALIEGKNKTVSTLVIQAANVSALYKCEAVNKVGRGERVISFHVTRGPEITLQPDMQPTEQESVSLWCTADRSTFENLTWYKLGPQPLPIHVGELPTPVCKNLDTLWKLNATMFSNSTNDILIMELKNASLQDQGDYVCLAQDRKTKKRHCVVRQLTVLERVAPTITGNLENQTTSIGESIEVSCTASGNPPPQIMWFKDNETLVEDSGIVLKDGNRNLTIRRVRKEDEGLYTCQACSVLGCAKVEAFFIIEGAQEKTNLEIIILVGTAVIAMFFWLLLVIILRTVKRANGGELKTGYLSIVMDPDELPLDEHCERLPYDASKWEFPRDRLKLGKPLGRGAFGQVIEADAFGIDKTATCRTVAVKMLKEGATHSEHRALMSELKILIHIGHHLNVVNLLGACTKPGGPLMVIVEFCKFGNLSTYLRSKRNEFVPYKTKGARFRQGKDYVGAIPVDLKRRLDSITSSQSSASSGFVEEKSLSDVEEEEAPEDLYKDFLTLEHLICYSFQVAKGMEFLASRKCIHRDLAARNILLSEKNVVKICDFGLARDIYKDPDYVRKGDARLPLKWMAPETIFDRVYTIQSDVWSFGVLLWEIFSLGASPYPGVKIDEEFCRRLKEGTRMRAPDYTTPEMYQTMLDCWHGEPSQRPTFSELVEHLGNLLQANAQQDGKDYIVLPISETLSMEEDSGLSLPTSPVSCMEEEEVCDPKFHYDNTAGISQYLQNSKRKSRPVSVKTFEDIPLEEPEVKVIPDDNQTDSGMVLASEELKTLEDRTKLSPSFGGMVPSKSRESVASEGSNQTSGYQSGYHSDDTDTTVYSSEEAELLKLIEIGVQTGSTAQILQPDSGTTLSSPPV
Chain of Pim1 kinase (P11309 whole entry): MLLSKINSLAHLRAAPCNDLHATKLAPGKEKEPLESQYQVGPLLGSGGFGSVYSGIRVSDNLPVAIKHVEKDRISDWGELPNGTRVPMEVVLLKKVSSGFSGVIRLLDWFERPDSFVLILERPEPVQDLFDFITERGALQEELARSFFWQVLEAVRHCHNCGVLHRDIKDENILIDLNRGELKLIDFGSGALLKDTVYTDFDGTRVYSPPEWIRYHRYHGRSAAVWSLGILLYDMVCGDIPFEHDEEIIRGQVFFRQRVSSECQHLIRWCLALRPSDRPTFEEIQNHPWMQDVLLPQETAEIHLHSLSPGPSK

As to `Nc1ncc(-c2ccccc2F)nc1C(=O)Nc1ccccc1N1CCNCC1` [Example 383, 3-amino-6-(2-fluoro-phenyl)-pyrazine-2-carboxylic acid (2-piperazin-1-yl-phenyl)-amide], the IC50 (commonly the concentration at which inhibition is half-maximal) in test [1] was 1 to 10 µM; in test [2], less than 1000 nM; in test [3], 1 to 10 µM; in test [4] it was less than 1 µM; in test [5], less than 1 µM.
For `Nc1ncc(-c2ccoc2)nc1C(=O)Nc1ccccc1N1CCNCC1` [Example 384, 3-amino-6-furan-3-yl-pyrazine-2-carboxylic acid (2-piperazin-1-yl-phenyl)-amide], the IC50 in test [1] is 1 to 10 µM; in test [2], less than 1000 nM; in test [3] it was 1 to 10 µM; in test [4], less than 1 µM; in test [5], 1 to 10 µM.
As to `NC(=O)c1cccc(-c2cnc(N)c(C(=O)Nc3ccccc3N3CCNCC3)n2)c1` [Example 385, 3-amino-6-(3-carbamoyl-phenyl)-pyrazine-2-carboxylic acid (2-piperazin-1-yl-phenyl)-amide], the IC50 in test [1] is 1 to 10 µM; in test [2], less than 1000 nM; in test [3], 1 to 10 µM; in test [4], less than 1 µM; in test [5] it was less than 1 µM.
With `COc1ccc(-c2cnc(N)c(C(=O)Nc3ccccc3N3CCNCC3)n2)cc1` [Example 386, 3-amino-6-(4-methoxy-phenyl)-pyrazine-2-carboxylic acid (2-piperazin-1-yl-phenyl)-amide], the concentration for half-maximal inhibition (IC50) in test [1] is 1 to 10 µM; in test [2] it was less than 1000 nM; in test [3], 1 to 10 µM; in test [4], less than 1 µM; in test [5], less than 1 µM.
Take `Nc1ncc(-c2ccccc2Oc2ccccc2)nc1C(=O)Nc1ccccc1N1CCNCC1` [Example 387, 3-amino-6-(2-phenoxy-phenyl)-pyrazine-2-carboxylic acid (2-piperazin-1-yl-phenyl)-amide]: the IC50 was more than 25 µM in test [1]; 1000 to 10000 nM in test [2]; 10 to 25 µM in test [3]; 1 to 10 µM in test [4]; 1 to 10 µM in test [5].
For the compound `Cc1cccc(-c2cnc(N)c(C(=O)Nc3ccccc3N3CCNCC3)n2)c1` [Example 388, 3-amino-6-m-tolyl-pyrazine-2-carboxylic acid (2-piper-azin-1-yl-phenyl)-amide], the IC50 in test [1] is 1 to 10 µM; in test [2], less than 1000 nM; in test [3], less than 1 µM; in test [4] it was less than 1 µM; in test [5], less than 1 µM.
As to `COc1ncccc1-c1cnc(N)c(C(=O)Nc2ccccc2N2CCNCC2)n1` [Example 390, 3-amino-6-(2-methoxy-pyridin-3-yl)-pyrazine-2-carboxylic acid (2-piperazin-1-yl-phenyl)-amide], the IC50 in test [1] is more than 25 µM; in test [2], less than 1000 nM; in test [3], 1 to 10 µM; in test [4], less than 1 µM; in test [5], 1 to 10 µM.
On to `COc1ncc(-c2cnc(N)c(C(=O)Nc3ccccc3N3CCNCC3)n2)cn1` [Example 391, 3-amino-6-(2-methoxy-pyrimidin-5-yl)-pyrazine-2-carboxylic acid (2-piperazin-1-yl-phenyl)-amide], for which the IC50 in test [1] is more than 25 µM; in test [2] it was 1000 to 10000 nM; in test [3], more than 25 µM; in test [4] it was 1 to 10 µM; in test [5] it was 1 to 10 µM.
Consider `Cc1ccc(-c2ccc(N)c(C(=O)Nc3cnccc3N3CCC[C@H](N)C3)n2)c(F)c1` [Example 406, (S)-3-amino-N-(4-(3-aminopiperidin-1-yl)pyridin-3-yl)-6-(2-fluoro-4-methylphenyl)picolinamide], for which the IC50 in test [1] is less than 1 µM; in test [2] it was 1000 to 10000 nM; in test [3] it was more than 25 µM; in test [4], less than 1 µM; in test [5] it was less than 1 µM.
In the case of `Nc1ncc(-c2ccc(N)c(C(=O)Nc3cnccc3N3CCC[C@H](N)C3)n2)cn1` [Example 411, 3-amino-6-(2-amino-pyrimidin-5-yl)-pyridine-2-carboxylic acid ((S)-3-amino-3,4,5,6-tetrahydro-2H-[1,4′]bipyridinyl-3′-yl)-amide], the IC50 in test [1] is less than 1 µM; in test [2], 10000 to 25000 nM; in test [3], more than 25 µM; in test [4], less than 1 µM; in test [5], less than 1 µM.
In the case of `Nc1ncc(-c2ccccc2)nc1C(=O)Nc1cc(C(=O)c2ccccc2)ccc1N1CCCC(N)C1` (stereo not shown) [Example 435, 3-amino-6-phenyl-pyrazine-2-carboxylic acid [2-(3-amino-piperidin-1-yl)-5-benzoyl-phenyl]-amide], the IC50 in test [1] was 1 to 10 µM; in test [2], 10000 to 25000 nM; in test [3], less than 1 µM; in test [4] it was 1 to 10 µM; in test [5], 1 to 10 µM.
Turning to `Nc1ncc(-c2ccccc2)nc1C(=O)Nc1cc(C(=O)c2ccccc2)ccc1N1CCC(N)CC1` [Example 436, 3-amino-6-phenyl-pyrazine-2-carboxylic acid [2-(4-amino-piperidin-1-yl)-5-benzoyl-phenyl]-amide], the IC50 in test [1] was more than 25 µM; in test [2], 1000 to 10000 nM; in test [3] it was 1 to 10 µM; in test [4], 1 to 10 µM; in test [5] it was 1 to 10 µM.
Regarding `COc1ccc(N2CCC(N)CC2)c(NC(=O)c2nc(-c3ccccc3)cnc2N)c1` [Example 437, 3-amino-6-phenyl-pyrazine-2-carboxylic acid [2-(4-amino-piperidin-1-yl)-5-methoxy-phenyl]-amide], the IC50 in test [1] is less than 1 µM; in test [2], less than 1000 nM; in test [3], 1 to 10 µM; in test [4], less than 1 µM; in test [5], less than 1 µM.
As to `Nc1ncc(-c2ccccc2F)nc1C(=O)Nc1cc(C(=O)c2ccccc2)ccc1N1CCNCC1` [Example 438, 3-amino-6-(2-fluoro-phenyl)-pyrazine-2-carboxylic acid (5-benzoyl-2-piperazin-1-yl-phenyl)-amide], the IC50 in test [1] was more than 25 µM; in test [2] it was more than 25000 nM; in test [3], 1 to 10 µM; in test [4], 1 to 10 µM; in test [5], 1 to 10 µM.
Turning to `Nc1ncc(-c2ccccc2F)nc1C(=O)Nc1cc(C(=O)c2ccccc2)ccc1N1CCC(N)CC1` [Example 439, 3-amino-6-(2-fluoro-phenyl)-pyrazine-2-carboxylic acid [2-(4-amino-piperidin-1-yl)-5-benzoyl-phenyl]-amide], the IC50 was more than 25 µM in test [1]; 1000 to 10000 nM in test [2]; 1 to 10 µM in test [3]; 1 to 10 µM in test [4]; 1 to 10 µM in test [5].
With `Cc1cnc(N)c(C(=O)Nc2cc(C(=O)c3ccccc3)ccc2N2CCNCC2)n1` [Example 440, 3-amino-6-methyl-pyrazine-2-carboxylic acid (5-benzoyl-2-piperazin-1-yl-phenyl)-amide], the half-inhibitory concentration (IC50) was more than 25 µM in test [1]; more than 25000 nM in test [2]; 1 to 10 µM in test [3]; more than 25 µM in test [4]; 10 to 25 µM in test [5].
On to `COc1ccc(-c2cnc(N)c(C(=O)Nc3cc(C(=O)c4ccccc4)ccc3N3CCNCC3)n2)cc1` [Example 441, 3-amino-6-(4-methoxy-phenyl)-pyrazine-2-carboxylic acid (5-benzoyl-2-piperazin-1-yl-phenyl)-amide], for which the IC50 in test [1] is more than 25 µM; in test [2] it was 10000 to 25000 nM; in test [3], less than 1 µM; in test [4], 1 to 10 µM; in test [5], 1 to 10 µM.
